Measurements from ChEMBL document CHEMBL1201862, “PubChem BioAssay data set” (2004).
Activity calls are given as the source filed them.

Columns and labels:
Caspase-3 = target: T1, Caspase-3 (Homo sapiens, UniProt P42574); assay type: functional;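 further: Dose-response selectivity test against caspase-3 for candidate inhibitors of sentrin-specific proteases (SENPs)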
T1 sequence (P42574 whole entry): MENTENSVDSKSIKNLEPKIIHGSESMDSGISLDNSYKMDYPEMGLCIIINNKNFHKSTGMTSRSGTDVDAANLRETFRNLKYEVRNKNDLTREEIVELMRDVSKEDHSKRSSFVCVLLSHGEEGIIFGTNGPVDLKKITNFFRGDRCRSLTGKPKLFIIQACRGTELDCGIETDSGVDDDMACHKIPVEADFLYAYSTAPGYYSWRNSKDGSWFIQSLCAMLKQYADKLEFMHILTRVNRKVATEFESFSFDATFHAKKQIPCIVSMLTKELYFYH

[1] = target: T2, Sentrin-specific protease 7 (Homo sapiens, UniProt Q9BQF6); assay type: functional;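 further: Luminescence-based dose-response confirmation of ultra-high-throughput screening hits, measuring inhibition of SENP7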
T2 sequence (Q9BQF6 whole entry): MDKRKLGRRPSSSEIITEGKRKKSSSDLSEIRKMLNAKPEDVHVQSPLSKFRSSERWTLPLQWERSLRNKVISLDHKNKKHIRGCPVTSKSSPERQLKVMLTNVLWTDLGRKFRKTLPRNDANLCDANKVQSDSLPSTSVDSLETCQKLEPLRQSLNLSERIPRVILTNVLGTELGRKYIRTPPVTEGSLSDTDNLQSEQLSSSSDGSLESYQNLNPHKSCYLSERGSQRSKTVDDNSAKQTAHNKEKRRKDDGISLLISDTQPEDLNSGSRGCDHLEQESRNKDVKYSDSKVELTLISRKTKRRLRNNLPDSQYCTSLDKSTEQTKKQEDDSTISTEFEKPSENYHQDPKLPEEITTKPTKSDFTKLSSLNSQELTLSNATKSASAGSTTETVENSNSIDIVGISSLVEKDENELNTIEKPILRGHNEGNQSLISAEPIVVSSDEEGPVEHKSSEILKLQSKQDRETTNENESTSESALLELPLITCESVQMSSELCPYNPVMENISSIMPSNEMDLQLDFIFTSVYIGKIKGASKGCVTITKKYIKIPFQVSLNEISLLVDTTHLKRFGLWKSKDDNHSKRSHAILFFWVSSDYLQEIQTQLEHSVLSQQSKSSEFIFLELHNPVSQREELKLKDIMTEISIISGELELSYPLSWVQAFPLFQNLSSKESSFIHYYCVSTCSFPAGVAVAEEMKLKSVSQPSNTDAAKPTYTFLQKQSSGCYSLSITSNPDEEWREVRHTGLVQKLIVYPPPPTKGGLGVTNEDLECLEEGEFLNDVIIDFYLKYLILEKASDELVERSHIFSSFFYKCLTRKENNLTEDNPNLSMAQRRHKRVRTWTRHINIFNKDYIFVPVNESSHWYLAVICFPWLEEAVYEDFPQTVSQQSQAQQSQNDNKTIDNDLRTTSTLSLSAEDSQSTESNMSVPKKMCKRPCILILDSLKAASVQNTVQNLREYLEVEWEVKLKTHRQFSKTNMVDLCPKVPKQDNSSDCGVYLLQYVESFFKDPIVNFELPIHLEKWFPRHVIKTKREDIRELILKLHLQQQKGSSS

[2] = target: T3, Sentrin-specific protease 6 (Homo sapiens, UniProt Q9GZR1); assay type: functional;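 further: Luminescence-based dose-response confirmatory assay of SENP6 inhibition, following up an ultra-high-throughput screen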
T3 sequence (Q9GZR1 whole entry): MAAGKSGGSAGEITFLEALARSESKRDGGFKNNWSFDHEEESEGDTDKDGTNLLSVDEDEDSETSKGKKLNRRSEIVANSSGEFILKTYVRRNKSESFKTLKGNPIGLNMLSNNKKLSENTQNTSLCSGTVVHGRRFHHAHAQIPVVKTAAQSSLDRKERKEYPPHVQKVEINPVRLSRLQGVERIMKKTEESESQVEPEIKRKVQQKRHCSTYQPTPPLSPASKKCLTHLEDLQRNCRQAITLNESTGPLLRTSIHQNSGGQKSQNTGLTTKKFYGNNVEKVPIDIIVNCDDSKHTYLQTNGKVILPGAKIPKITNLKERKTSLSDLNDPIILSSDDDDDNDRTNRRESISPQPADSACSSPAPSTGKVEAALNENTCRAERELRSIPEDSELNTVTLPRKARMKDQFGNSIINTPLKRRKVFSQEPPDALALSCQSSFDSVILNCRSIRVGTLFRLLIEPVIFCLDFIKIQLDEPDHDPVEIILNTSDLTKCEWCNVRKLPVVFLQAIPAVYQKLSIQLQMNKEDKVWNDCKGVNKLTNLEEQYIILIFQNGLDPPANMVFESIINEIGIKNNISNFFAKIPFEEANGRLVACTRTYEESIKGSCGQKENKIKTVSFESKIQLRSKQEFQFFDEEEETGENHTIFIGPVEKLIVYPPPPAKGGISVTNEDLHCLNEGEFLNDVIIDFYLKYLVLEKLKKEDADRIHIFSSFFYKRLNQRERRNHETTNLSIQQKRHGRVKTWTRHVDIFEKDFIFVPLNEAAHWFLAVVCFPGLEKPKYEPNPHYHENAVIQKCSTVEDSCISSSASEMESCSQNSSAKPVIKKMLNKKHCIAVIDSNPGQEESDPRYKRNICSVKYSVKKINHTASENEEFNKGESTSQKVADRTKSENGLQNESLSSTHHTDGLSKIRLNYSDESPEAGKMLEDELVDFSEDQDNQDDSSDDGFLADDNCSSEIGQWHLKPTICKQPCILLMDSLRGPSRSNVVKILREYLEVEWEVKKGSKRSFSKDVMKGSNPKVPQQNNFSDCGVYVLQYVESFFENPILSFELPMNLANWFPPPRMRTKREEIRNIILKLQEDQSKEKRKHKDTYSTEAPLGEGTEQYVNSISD

[3] = target: T4, Sentrin-specific protease 8 (Homo sapiens, UniProt Q96LD8); assay type: functional;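 further: luminescence read-out of SENP8 inhibition, dose-response confirmation following an ultra-high-throughput screen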
T4 sequence (Q96LD8 whole entry): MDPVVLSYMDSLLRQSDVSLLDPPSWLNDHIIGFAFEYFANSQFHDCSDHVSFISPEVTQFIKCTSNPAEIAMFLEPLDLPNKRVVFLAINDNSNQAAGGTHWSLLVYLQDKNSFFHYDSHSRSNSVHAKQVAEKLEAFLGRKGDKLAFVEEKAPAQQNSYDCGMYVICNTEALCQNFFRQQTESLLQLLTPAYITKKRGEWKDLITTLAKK

[4] = Luminescence Cell-Based Dose Confirmation HTS to Identify Activators of 5'UTR Stem-Loop Driven Alpha-Synuclein mRNA Translation in H4 Neuroglioblastoma Cells. [Related pubchem assays: 1829 (Project Summary), 1814 (Primary HTS)]; assay type: functional
[5] = Luminescence Cell-Based Dose Response HTS to Identify Activators of Luciferase Translation or Activity in H4 […] Cells. [Related pubchem assays: 1829 (Project Summary), 1814 (Primary HTS)]; assay type: functional
H4 = assay: Luminescence Cell-Based Dose Response HTS to Identify Activators of 5'UTR Stem-Loop Driven Prion Protein mRNA Translation in H4 Neuroglioblastoma Cells. [Related pubchem assays: 1829 (Project Summary), 1814 (Primary HTS)]; assay type: functional; details: Homo sapiens
Cysteine protease ATG4B = target: T5, Cysteine protease ATG4B (Homo sapiens, UniProt Q9Y4P1); assay type: functional;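 further: Fluorescence-based dose-response confirmation assay measuring inhibition of ATG4B activity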
T5 sequence (Q9Y4P1 whole entry): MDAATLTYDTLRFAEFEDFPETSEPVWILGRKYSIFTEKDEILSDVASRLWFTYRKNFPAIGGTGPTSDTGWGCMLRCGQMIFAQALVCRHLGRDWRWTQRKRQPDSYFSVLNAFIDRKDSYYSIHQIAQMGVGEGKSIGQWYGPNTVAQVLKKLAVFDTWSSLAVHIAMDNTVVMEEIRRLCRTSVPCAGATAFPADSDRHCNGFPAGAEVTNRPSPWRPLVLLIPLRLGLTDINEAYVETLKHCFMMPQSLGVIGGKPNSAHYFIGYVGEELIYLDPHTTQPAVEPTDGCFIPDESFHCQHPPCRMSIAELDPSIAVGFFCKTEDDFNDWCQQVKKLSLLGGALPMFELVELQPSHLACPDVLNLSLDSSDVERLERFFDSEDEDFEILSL

Phospholipase A2 = Phospholipase A2 (Homo sapiens, UniProt P04054); assay type: functional;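 further: confirmatory dose-response counterscreen on phospholipase A2, testing hits that came from an ultra-high-throughput screen for ATG4B inhibitors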
[6] = Luminescence Cell-Based Dose Response to Identify Activators of 5'UTR Stem-Loop Driven Prion Protein mRNA Translation in H4-C Neuroglioblastoma Cells. [Related pubchem assays: 1829 (Project Summary), 1814 (Primary HTS)]; assay type: functional
[7] = system: Streptococcus sp. 'group A'; assay: growth inhibition of control SK(-) GAS strain, dose response, counter-screen for streptokinase expression inhibitor project, luminescence, kanamycin, BacTiterGlo, confirmation (AID 1900); assay type: functional, organism-based
Streptokinase A = target: T6, Streptokinase A (Streptococcus pyogenes serotype M1, UniProt P10520); assay: S. pyogenes streptokinase expression inhibitors, potency, dose response, plasminogen activation absorbance, OD405 (AID 1914); assay type: functional, Streptococcus pyogenes M1 GAS;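 further: secreted streptokinase activity via plasminogen activation per viability signal from cell pellet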
T6 sequence (P10520 whole entry): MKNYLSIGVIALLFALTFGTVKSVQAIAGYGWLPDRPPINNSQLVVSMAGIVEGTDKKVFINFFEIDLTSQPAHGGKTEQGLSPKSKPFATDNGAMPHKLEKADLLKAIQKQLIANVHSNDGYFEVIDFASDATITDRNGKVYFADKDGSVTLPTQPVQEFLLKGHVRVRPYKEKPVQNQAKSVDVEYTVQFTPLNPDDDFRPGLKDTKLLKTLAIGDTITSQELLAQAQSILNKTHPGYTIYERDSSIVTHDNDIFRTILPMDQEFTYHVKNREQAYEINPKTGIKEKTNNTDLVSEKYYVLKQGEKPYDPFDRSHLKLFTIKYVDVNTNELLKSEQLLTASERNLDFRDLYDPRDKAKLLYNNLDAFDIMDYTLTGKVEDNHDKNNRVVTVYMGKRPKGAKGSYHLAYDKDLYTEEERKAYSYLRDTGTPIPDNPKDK

[8] = Luminescence Cell-Based Dose Response to Identify Activators of Luciferase Translation or Activity in H4-C Neuroglioblastoma Cells. [Related pubchem assays: 1829 (Project Summary), 1814 (Primary HTS)]; assay type: functional
[9] = Luminescence Cell-Based Dose Confirmation to Identify Activators of 5'UTR Stem-Loop Driven Alpha-Synuclein mRNA Translation in H4 Neuroglioblastoma Cells. [Related pubchem assays: 1829 (Project Summary), 1814 (Primary HTS)]; assay type: functional
Streptococcus = assay: Group A Streptococcus viability loss, dose response, counter-screen for streptokinase expression inhibitor project, luminescence, BacTiterGlo (AID 1915); assay type: functional, organism-based;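 further: potency for reduction of bacterial viability or growth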
HeLa = assay: HeLa cell cytotoxicity, dose response, cytotoxicity control for MITF activator project, CellTiter-Glo luminescence, cherry-pick samples (AID 540259); assay type: functional, cell-based; details: Homo sapiens
[10] = target: Beta-2 adrenergic receptor (Homo sapiens, UniProt P07550); assay: beta2AR agonists driving receptor internalization, dose response, cell-based, FAP fluorogen, flow cytometry, cherry pick 1 (AID 588763); assay type: functional
[11] = Luminescence Cell-Based Dose Retest to Confirm Inhibitors of Cancer Stem Cells. [Related pubchem assays (depositor defined):AID2717, AID2721]; assay type: functional; details: Homo sapiens
[12] = target: Heat shock protein HSP 90-alpha (Homo sapiens, UniProt P07900); assay type: functional, organism-based

Sequence of Phospholipase A2 (P04054 whole entry): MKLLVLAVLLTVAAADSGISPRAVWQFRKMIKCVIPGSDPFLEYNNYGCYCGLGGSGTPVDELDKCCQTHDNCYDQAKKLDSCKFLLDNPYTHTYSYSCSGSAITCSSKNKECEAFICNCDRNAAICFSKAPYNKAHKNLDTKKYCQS
Sequence of Beta-2 adrenergic receptor (P07550 whole entry): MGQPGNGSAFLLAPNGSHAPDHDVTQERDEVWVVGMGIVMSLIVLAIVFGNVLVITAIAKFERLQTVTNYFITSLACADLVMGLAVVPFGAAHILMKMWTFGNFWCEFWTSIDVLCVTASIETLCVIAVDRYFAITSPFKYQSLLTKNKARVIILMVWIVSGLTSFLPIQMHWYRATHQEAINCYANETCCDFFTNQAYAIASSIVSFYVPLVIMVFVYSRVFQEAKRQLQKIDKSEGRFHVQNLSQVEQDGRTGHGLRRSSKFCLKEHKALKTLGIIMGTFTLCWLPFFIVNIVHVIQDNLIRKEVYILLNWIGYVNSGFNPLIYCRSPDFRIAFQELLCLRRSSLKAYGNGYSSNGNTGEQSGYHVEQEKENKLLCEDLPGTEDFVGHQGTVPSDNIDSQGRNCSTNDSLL

SMILES | IC50 (Caspase-3) | IC50 [1] | IC50 [2] | IC50 [3] | IC50 (Cysteine protease ATG4B) | IC50 (Phospholipase A2) | further results
COc1ccc(/C=N/Nc2nncc3ccccc23)c(OC)c1 | 7.23 µM (active) | 3.46 µM (active) | 11.1 µM (active) | 44.8 µM (active) | – | – | –
O=C(NC(=S)NCCC1=CCCCC1)c1ccc(Br)o1 | – | – | – | – | 15.9 µM (active) | 9.44 µM (active) | EC50 [4]: 83 µM (active); EC50 [5]: 15.1 µM (active); EC50 (H4): 18.1 µM (active)
Cc1cccc2nc(COc3ccc4ccccc4c3Br)cn12 | – | – | – | – | – | – | EC50 [6]: 0.638 µM (active); EC50 [4]: 0.167 µM (active); EC50 [5]: < 0.1 µM (inconclusive); EC50 [7]: 12.7 µM (active); EC50 (H4): > 120 µM (not active); EC50 (Streptokinase A): > 150 µM (not active); EC50 [8]: 0.561 µM (active); EC50 [9]: 0.34 µM (active); EC50 (Streptococcus): > 150 µM (not active); AC50 (HeLa): 73 µM (active); EC50 [10]: 3.71 µM (active)
CCCc1ccc(OCc2nc(-c3ccc(NC(=O)c4ccco4)cc3)no2)cc1 | – | – | – | – | – | – | EC50 [10]: 0.161 µM (active)
Cc1ccc(C(=O)Nc2nc(C)c(C(=O)Nc3ccc4c(c3)CCC4)s2)cc1 | 19.8 µM (active) | 8.21 µM (active) | > 100 µM (inactive) | > 100 µM (inactive) | – | – | AC50 [11]: 0.458 µM (active)
O=C(N/N=C/c1cccc(Oc2ccccc2)c1)c1cccc(O)c1 | 31.2 µM (active) | 10.7 µM (active) | 25.7 µM (active) | 24 µM (active) | – | – | –
O=C(Cn1cccc1C(=O)c1ccccc1)NCCC1=CCCCC1 | – | – | – | – | 20.1 µM (inactive) | 11.7 µM (active) | –
COc1ccc2c(c1)CCc1c(C(=O)N3CCc4ccccc4C3)noc1-2 | – | – | – | – | – | – | AC50 [12]: 6.29 µM (active)
O=C(O)c1cccc(CSc2nc(-c3ccc(Cl)cc3)cc(C(F)(F)F)n2)c1 | – | – | – | – | 12.8 µM (active) | 11.4 µM (active) | –
